Drawing on US20100099676A1 (SHIONOGI & CO., LTD., priority 2006, published 2010), this text covers IC50 for 16 compounds.

Common to all, as to test: Enzyme inhibiting activity of MMPs, fluorogenic peptide substrate
What all share (type): biochemical

One assay concerns the target T1, MMP-13 (Homo sapiens, UniProt P45452).
T1 construct: purchased Calbiochem (EMD/MERCK Biosciences)
To be noted: APMA-activated proenzyme; substrate MOCAc-Pro-Leu-Gly-Leu-A2Pr(DNP)-Ala-Arg-NH2, fluorescent intensity; read-out: IC50 MMP-13. Here is the method:
(§1) Various human MMPs (MMP-2, MMP-9 and MMP-13) were purchased from Calbiochem (EMD/MERCK Biosciences).
Since the purchased MMP-13 was Proenzyme, the activated one was used, which was incubated at 37° C. for 2 hours after the successive addition of an assay buffer (containing 50 mM Tris-HCl (pH7.6), 0.3 M NaCl, 10 mM CaCl2, 0.005% Brij35) and APMA (final concentration 1 mM) to the enzyme solution.
(§2) The enzyme activity of MMPs was measured according to the method described in C. Graham Knight, Frances Willenbrock and Gillian Murphy: A novel coumarin-labelled peptide for sensitive continuous assays of the matrix metalloproteinases: FEBS LETT., 296, (1992), 263-266. As a substrate, MOCAc-Pro-Leu-Gly-Leu-A2Pr(DNP)- Ala-Arg-NH2 (Peptide Institute, Inc. Osaka, Japan) was used, and the following four assays are performed per compound (inhibitor) for measuring the inhibiting activity.
(§3) (A) Substrate (synthetic substrate), enzyme (MMPs), inhibitor
(§4) (B) Substrate (synthetic substrate), inhibitor
(§5) (C) Substrate (synthetic substrate), enzyme (MMPs)
(§6) (D) Substrate (synthetic substrate)
(§7) In each assay, the fluorescent intensity was measured, and inhibition (%) was calculated by the following equation.
(§8) Inhibition (%)=[I−(A−B)/(C−D)]×100
(§9) IC50 indicates a concentration at which inhibition (%) is 50%.

Another assay concerns the target T2, MMP-9 (Homo sapiens, UniProt P14780).
T2 construct: purchased Calbiochem (EMD/MERCK Biosciences)
The conditions noted are these: substrate MOCAc-Pro-Leu-Gly-Leu-A2Pr(DNP)-Ala-Arg-NH2, fluorescent intensity. Here is the method:
as §1, §2, §3, §4, §5, §6, §7, §8, §9

A further assay concerns the target T3, MMP-2 (Homo sapiens, UniProt P08253).
T3 construct: purchased Calbiochem (EMD/MERCK Biosciences)
T3 sequence (P08253 110-660): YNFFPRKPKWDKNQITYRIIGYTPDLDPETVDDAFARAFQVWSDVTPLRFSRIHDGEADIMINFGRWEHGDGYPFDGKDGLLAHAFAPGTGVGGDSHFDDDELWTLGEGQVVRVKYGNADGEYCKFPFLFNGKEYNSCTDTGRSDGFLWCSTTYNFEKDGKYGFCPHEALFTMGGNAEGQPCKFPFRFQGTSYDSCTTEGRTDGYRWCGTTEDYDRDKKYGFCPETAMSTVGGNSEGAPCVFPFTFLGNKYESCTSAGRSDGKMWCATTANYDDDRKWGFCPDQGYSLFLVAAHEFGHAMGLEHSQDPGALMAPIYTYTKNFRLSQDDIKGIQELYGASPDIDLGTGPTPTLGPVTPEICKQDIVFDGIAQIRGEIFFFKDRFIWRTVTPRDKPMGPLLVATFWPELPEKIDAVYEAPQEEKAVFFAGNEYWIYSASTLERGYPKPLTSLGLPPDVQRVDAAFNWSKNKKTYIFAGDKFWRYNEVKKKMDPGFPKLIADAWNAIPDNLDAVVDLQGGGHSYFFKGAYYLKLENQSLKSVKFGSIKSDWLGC
The conditions noted are these: substrate MOCAc-Pro-Leu-Gly-Leu-A2Pr(DNP)-Ala-Arg-NH2, fluorescent intensity. Here is the method: as §1, §2, §3, §4, §5, §6, §7, §8, §9

T2 sequence (P14780 94-707): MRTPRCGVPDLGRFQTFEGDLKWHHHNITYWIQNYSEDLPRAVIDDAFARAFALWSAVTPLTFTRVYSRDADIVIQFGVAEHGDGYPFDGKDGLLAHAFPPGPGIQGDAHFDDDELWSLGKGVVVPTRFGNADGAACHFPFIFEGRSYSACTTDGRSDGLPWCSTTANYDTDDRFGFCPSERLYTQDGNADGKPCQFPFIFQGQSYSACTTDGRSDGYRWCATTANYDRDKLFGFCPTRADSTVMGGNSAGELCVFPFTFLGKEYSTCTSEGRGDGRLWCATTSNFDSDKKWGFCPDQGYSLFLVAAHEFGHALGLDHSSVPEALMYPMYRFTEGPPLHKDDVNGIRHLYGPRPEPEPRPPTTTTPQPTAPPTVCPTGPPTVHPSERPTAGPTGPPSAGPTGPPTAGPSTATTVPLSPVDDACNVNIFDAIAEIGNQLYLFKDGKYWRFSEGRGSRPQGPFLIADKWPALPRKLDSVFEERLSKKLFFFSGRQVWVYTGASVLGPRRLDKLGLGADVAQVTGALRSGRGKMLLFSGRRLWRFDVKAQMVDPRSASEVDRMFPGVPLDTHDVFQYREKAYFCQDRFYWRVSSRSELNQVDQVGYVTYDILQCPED

The term IC50 denotes the concentration at which inhibition is half-maximal. As to `CC(C)[C@@H](NS(=O)(=O)N1CCN(c2ccc(C#Cc3ccc4ccn(Cc5ccncc5)c(=O)c4c3)cc2)CC1)C(=O)O` [III-169, (R)-3-methyl-2-{4-[4-(1-oxo-2-pyridin-4-ylmethyl-1,2-dihydroisoquinolin-7-ylethynyl)-phenyl]-piperazine-1-sulfonylamino}-butanoic acid], the IC50 at MMP-13 was 3 nM; at MMP-9, > 10 µM; against MMP-2, 1 to 10 µM.

Regarding `CC(C)[C@@H](NS(=O)(=O)N1CCN(c2ccc(C#Cc3ccc4[nH]c(=O)n(Cc5ccc(Cl)cc5)c(=O)c4c3)cc2)CC1)C(=O)O` [III-6, (R)-2-(4-{4-[3-(4-chrolobenzyl)-2,4-dioxo-1,2,3,4-tetrahydroquinazolin-6-ylethynyl]-phenyl}-piperazine-1-sulfonylamino)-3-methylbutanoic acid], the IC50 on MMP-13 is 28 nM; at MMP-9 it was > 10 µM; at MMP-2, > 10 µM.

With `CC(C)[C@@H](NS(=O)(=O)N1CCN(c2ccc(C#Cc3ccnc(C(=O)NCc4ccc(F)c(Br)c4)c3)cc2)CC1)C(=O)O` [III-210, (R)-2-(4-{4-[2-(3-bromo4-fluorobenzylcarbamoyl)-pyridin-4-ylethynyl]-phenyl}-piperazine-1-sulfonylamino)-3-methylbutanoic acid], the IC50 at MMP-13 is 17 nM; at MMP-9 it was > 10 µM; against MMP-2, > 10 µM.

Take `CCOCCOc1ccc(C#Cc2ccc(N3CCN(S(=O)(=O)N[C@@H](C(=O)O)C(C)C)CC3)cc2)cc1C(=O)NCC#N` [III-135, (R)-2-(4-{4-[3-(cyanomethylcarbamoyl)-4-(2-ethoxyethoxy)-phenylethynyl]-phenyl}-piperazine-1-sulfonylamino)-3-methylbutanoic acid]: the IC50 on MMP-13 is 9 nM; against MMP-9, > 10 µM; on MMP-2 it was 1 to 10 µM.

In the case of `CC(C)[C@@H](NS(=O)(=O)N1CCN(c2ccc(C#Cc3ccc4[nH]c(=O)n(CC#N)c(=O)c4c3)cc2)CC1)C(=O)O` [Compound V-63, (R)-2-{4-[4-(3-cyanomethyl-2,4-dioxo-1,2,3,4-tetrahydroquinazolin-6-ylethynyl)-phenyl]-piperazine-1-sulfonylamino}-3-methylbutanoic acid], the figures for the IC50 on MMP-13, against MMP-9 and on MMP-2 were 8 nM, > 10 µM and 1 to 10 µM, respectively.

With `CCOc1ccc(C#Cc2ccc(N3CCN(S(=O)(=O)N[C@@H](C(=O)O)C(C)C)CC3)cc2)cc1-c1ncc(CC)o1` [Compound V-26, (R)-2-(4-{4-[4-ethoxy-3-(5-ethyloxazol-2-yl)-phenylethynyl]-phenyl}-piperazine-1-sulfonylamino)-3-methylbutanoic acid], the IC50 is 24 nM on MMP-13, > 10 µM against MMP-9 and 1 to 10 µM against MMP-2.

In the case of `C[C@@H](NS(=O)(=O)N1CCN(c2ccc(C#Cc3nc(-c4cccc(OCc5ccccc5)c4)cs3)cc2)CC1)C(=O)O` [Compound V-11, (R)-2-(4-{4-[4-(3-benzyloxyphenyl)-thiazol-2-ylethynyl]-phenyl}-piperazine-1-sulfonylamino)-proponic acid], the values for the IC50 on MMP-13, on MMP-9 and against MMP-2 were 14 nM, > 10 µM and 1 to 10 µM, respectively.

In the case of `C[C@@H](NS(=O)(=O)N1CCN(c2ccc(C#Cc3cc(C(=O)NCc4ccccc4)c(=O)n(C)c3)cc2)CC1)C(=O)O` [III-4, (R)-2-{4-[4-(5-benzylcarbamoyl-1-methyl-6-oxo-1,6-dihydropyridin-3-ylethynyl)-phenyl]-piperazine-1-sulfonylamino}-proponic acid], the IC50 at MMP-13 was 6 nM; against MMP-9 it was > 10 µM; against MMP-2, 1 to 10 µM.

Take `CCC[C@H](NS(=O)(=O)N1CCN(c2ccc(C#Cc3ccnc(C(=O)NCc4ccc(Cl)cc4)c3)cc2)CC1)C(=O)O` [III-60, (S)-2-(4-{4-[2-(4-chrolobenzylcarbamoyl)-pyridin-4-ylethynyl]-phenyl}-piperazine-1-sulfonylamino)-pentanoic acid]: the concentration for half-maximal inhibition (IC50) on MMP-13 was 6 nM; against MMP-9, > 10 µM; against MMP-2, > 10 µM.

`C[C@@H](NS(=O)(=O)N1CCN(c2ccc(C#Cc3nc(-c4cccc(OCc5ccc(S(C)(=O)=O)cc5)c4)cs3)cc2)CC1)C(=O)O` [Compound V-20, (R)-2-[4-(4-{4-[3-(4-methanesulfonylbenzyloxy)-phenyl]-thiazol-2-ylethynyl}-phenyl)-piperazine-1-sulfonylamino]-proponic acid]: the figures for the IC50 at MMP-13, at MMP-9 and against MMP-2 were 1 nM, > 10 µM and 1 to 10 µM, respectively.

As to `CC(C)[C@@H](NS(=O)(=O)N1CCN(c2ccc(C#Cc3ccnc(C(=O)NCc4ccc5c(c4)CCO5)c3)cc2)CC1)C(=O)O` [III-200, (R)-2-[4-(4-{2-[(2,3-dihydrobenzofuran-5-ylmethyl)-carbamoyl]-pyridin-4-ylethynyl}-phenyl)-piperazine-1-sulfonylamino]-3-methylbutanoic acid], the IC50 on MMP-13 was 5 nM; at MMP-9, > 10 µM; at MMP-2, 1 to 10 µM.

Take `COc1ccc(CNC(=O)c2cc(C#Cc3ccc(N4CCN(S(=O)(=O)N[C@H](C(=O)O)C(C)C)CC4)cc3)ccn2)cc1` [Compound V-34, (5)-2-(4-{4-[2-(4-methoxybenzylcarbamoyl)-pyridin-4-ylethynyl]-phenyl}-piperazine-1-sulfonylamino)-3-methylbutanoic acid]: the IC50 at MMP-13 is 5 nM; at MMP-9, > 10 µM; on MMP-2, 1 to 10 µM.

As for `COCCOc1ccc(C#Cc2ccc(N3CCN(S(=O)(=O)N[C@@H](C(=O)O)C(C)C)CC3)cc2)cc1-c1ncc(CC(=O)NCc2ccccc2)o1` [Compound V-24, (R)-2-(4-{4-[3-[5-(benzylearbamoylmethyl)-oxazol-2-yl]-4-(2-methoxyethoxy)-phenylethynyl]-phenyl}-piperazine-1-sulfonylamino)-3-methylbutanoic acid], the IC50 at MMP-13 was 23 nM; at MMP-9, > 10 µM; against MMP-2, > 10 µM.

In the case of `CC(=O)c1csc2ccc(C#Cc3ccc(N4CCN(S(=O)(=O)N[C@H](C)C(=O)O)CC4)cc3)cc12` [Compound V-56, (R)-2-{4-[4-(3-acetylbenzo[b]thiophen-5-ylethynyl)-phenyl]-piperazine-1-sulfonylamino}-proponic acid], the IC50 was 16 nM on MMP-13, > 10 µM at MMP-9 and 1 to 10 µM against MMP-2.

As for `COc1ccc(CNC(=O)c2cc(C#Cc3ccc(N4CCN(S(=O)(=O)N[C@@H](C(=O)O)C(C)C)CC4)cc3)ccn2)cc1` [III-150, (R)-2-(4-{4-[2-(4-methoxybenzylcarbamoyl)-pyridin-4-ylethynyl]-phenyl}-piperazine-1-sulfonylamino)-3-methylbutanoic acid], the results for the IC50 on MMP-13, against MMP-9 and on MMP-2 were 7 nM, > 10 µM and 1 to 10 µM, respectively.

As to `C[C@@H](NS(=O)(=O)N1CCN(c2ccc(C#Cc3ccc4c(c3)c(-c3ncco3)cn4C)cc2)CC1)C(=O)O` [III-46, (R)-2-{4-[4-(1-methyl-3-oxazol-2-yl-1H-indol-5-ylethynyl)-phenyl]-piperazine-1-sulfonylamino}-proponic acid], the IC50 was 18 nM at MMP-13, > 10 µM against MMP-9 and > 10 µM on MMP-2.
